Experimental data: patent publication US20240287019A1, “T-TYPE CALCIUM CHANNEL BLOCKER” (KINKI UNIVERSITY, priority 2021, published 2024)

Tests used:
[1] = system: mouse intrabuccal injection pruritus models (histamine); assay: Mouse intrabuccal injection pruritus model, histamine as pruritogen; assay type: in vivo, mice
Protocol: (§1) In this test, the antipruritic effect of the present compound was studied using mouse intrabuccal injection pruritus models in which histamine or chloroquine is intra-buccally administered as a pruritogen. Compound 5 and compound 38 were used as the present compound, and saline comprising 1% DMSO and 5% Tween 80 was used as control. Compound 5 and compound 38 were dissolved into saline comprising 1% DMSO and 5% Tween 80 to adjust the concentration of each compound. Also, male ICR mice with a body weight of 23 to 40 g were used as experimental animals and the animals were freely given tap water and solid feed and was kept under 12-hour light/dark cycle at room temperature of about 24° C.
According to the method in Shimada SG & LaMotte R H (2008) Behavioral differentiation between itch and pain in mouse. […] After the acclimatization, saline in a volume of 10 μL/site, histamine in a volume of 300 μL/site or chloroquine in a volume of 100 μL/site was intradermally administered to the shaved cheeks of the mice without anesthesia, and their subsequent behavior was recorded on video for 60 minutes. […] At the later date, the video was replayed and the number of occurrences of the scratching bouts by the hind paws to the administration site (as pruritus response) was counted for 60 minutes to evaluate the antipruritic effect of the present compound. […]

male ddY mice = assay: Catalepsy-inducing effect (bar test) after administration in the lateral ventricle; assay type: in vivo; conditions: 8 nmol in the lateral ventricle; 30-180 minutes after administration; result in words
From the text: In this test, the catalepsy-inducing effect of the present compound was studied to evaluate whether the present compound can inhibit side effects caused by the dopamine D2 receptor blockade. Compound 5 and compound 12 were used as the present compound and 2% DMSO solution was used as vehicle. Also, pimozide was used as the control drug.
16 male ddY mice were randomly divided into compound 5 administration group, compound 12 administration group, pimozide administration group and vehicle administration group (4 mice per group). The mice in each group were received the administration of 8 nmol (0.8 mM/10 μL) of compound 5, compound 12 and pimozide, and 10 μL of vehicle in the lateral ventricle. both forepaws of the mice were forced to place themselves on a horizontal iron bar (Height: 5 cm) and the time of keeping the posture (catalepsy) was measured to evaluate the presence or absence of catalepsy. The measurement was terminated when the forepaws touched the floor or when the mouse was on the bar.

[2] = target: T1, human Cav3.2 T-type calcium channels (Homo sapiens, UniProt O95180); assay: Whole-cell patch clamp, T channel current in HEK 293 cells forcibly expressing human Cav3.2; assay type: cell-based; conditions: perfusion addition method; from percentage change in T-channel current before and after addition; n=3 to 17
T1 construct: expressed in transfected cells; host or cells: HEK 293 cells
Protocol: The effect of the compound of the present invention on human Cav3.2 T-type calcium channels was evaluated by whole-cell patch clamp method. As a control (vehicle), DMSO solution was used.
Human kidney cell-derived cell line, HEK 293 cells, in which human Cav3.2 T-type calcium channels were forcibly expressed, were seeded into cell culture dishes using DMEM medium containing 10% fetal bovine serum and cultured at 37° C. under 5% CO2 conditions. In the whole-cell patch clamp method, the following solutions were used as extracellular and intracellular solutions, the holding potential is set at −80 mV, and the barium current flowing as an inward current in a potential jump from −80 mV to −20 mV was measured with a patch clamp amplifier and AD converter (Axon Instruments). In order to eliminate the influence of high-threshold activated calcium channels, the value obtained by subtracting the current at 150 ms after the start of stimulation from the peak current was used for data analysis as the T channel current (T-current). The data analysis was performed using pClamp8 (Axon Instruments).
As for test compounds, each compound dissolved in extracellular solution was added directly to the dishes (direct addition method) or added to the dishes by perfusion (perfusion addition method).
According to a similar method to the perfusion addition method of Test Example 1, the effect of each compound of the present invention on human Cav3.2 T-type channels was evaluated. As the test compounds, pimozide at each concentration of 0.01 μM, 0.1 μM, 0.3 μM, 1.0 μM and 3.0 μM, compound 5, compound 14 and compound 15 were used and the test compounds were added by perfusion.

[3] = system: mouse intrabuccal injection pruritus models (chloroquine); assay: Mouse intrabuccal injection pruritus model, chloroquine as pruritogen; assay type: in vivo, mice; conditions: for Scratching bouts (counts/60 minutes) (n): mean ± standard error (n); for inhibition of the histamine-independent scratching bouts: 10 mg/kg, chloroquine, result in words
Protocol: as §1
According to the method in Shimada SG & LaMotte R H (2008) Behavioral differentiation between itch and pain in mouse. Pain 139 (3): 681-687, histamine or chloroquine, which is a pruritogen, was dissolved into saline and the solution was administered into the buccal skin of each male ICR mouse and pruritus was induced to prepare mouse intrabuccal injection pruritus models. The mice were randomly divided into saline comprising 1% DMSO and 5% Tween 80 (Solvent 1)+saline (Solvent 2) administration group (control group), Solvent 1+histamine administration group, compound 5 (10 mg/kg)+histamine administration group, Solvent 1+chloroquine administration group, compound 5 (10 mg/kg)+chloroquine administration group, compound 38 (1 mg/kg)+chloroquine administration group, compound 38 (3 mg/kg)+chloroquine administration group and compound 38 (10 mg/kg)+chloroquine administration group (n=6 to 10). The mice in each group were anesthetized with isoflurane and their right cheek hairs were shaved a few days before the experiment. On the day of the experiment, the mice were placed in an acrylic observation cage (10×14×30 cm) with mirrors on all four sides and allowed to acclimate the environment for at least 30 minutes. After the acclimatization, saline in a volume of 10 μL/site, histamine in a volume of 300 μL/site or chloroquine in a volume of 100 μL/site was intradermally administered to the shaved cheeks of the mice without anesthesia, and their subsequent behavior was recorded on video for 60 minutes. Compound 5 (10 mg/kg), compound 38 (1 mg/kg, 3 mg/kg or 10 mg/kg) or Solvent 1 (10 mL/kg) was intraperitoneally administered 30 minutes before saline or the pruritogen was administered. At the later date, the video was replayed and the number of occurrences of the scratching bouts by the hind paws to the administration site (as pruritus response) was counted for 60 minutes to evaluate the antipruritic effect of the present compound.
The test results are shown in Table 5 to Table 7 and FIG. 8 to FIG. 10. Table 5 and FIG. 8 show the mean value±standard error (the total (n)) of the total counts of the scratching bouts by the hind paws to the administration site for 60 minutes after the administration in control group, Solvent 1+histamine administration group and compound 5 (10 mg/kg)+histamine administration group and the graph thereof, and Table 6 and FIG. 9 show the mean value±standard error (the total (n)) of the total counts of the scratching bouts by the hind paws to the administration site for 60 minutes after the intrabuccal administration on the right side in control group, Solvent 1+chloroquine administration group, compound 5(10 mg/kg)+chloroquine administration group and the graph thereof, and Table 7 and FIG. 10 show the mean value±standard error (the total (n)) of the total counts of the scratching bouts by the hind paws to the administration site for 60 minutes after the intrabuccal administration on the right side in control group, Solvent 1+chloroquine administration group, compound 38 (1 mg/kg)+chloroquine administration group, compound 38 (3 mg/kg)+chloroquine administration group and compound 38 (10 mg/kg)+chloroquine administration group and the graph thereof.

[4] = system: mouse Na2S intrabuccal injection pruritus models; assay: Mouse Na2S intrabuccal injection pruritus model (scratching bouts and wipes); assay type: in vivo, mice
Protocol: In this test, the antipruritic and analgesic effects of the present compound was studied using mouse Na2S intrabuccal injection pruritus models. Compound 5 was used as the present invention and saline comprising 1% DMSO and 5% Tween 80 was used as vehicle.
Male ICR mice were received the intrabuccal injection of 3.8 μmol (300 μg/10 μL) of Na2S and T-type calcium channel-[…] pain was induced to prepare mouse Na2S intrabuccal injection pruritus models. 18 mice were randomly divided into vehicle+saline administration group (control group), vehicle+Na2S administration group and compound 5 (10 mg/kg)+Na2S administration group (6 mice per group). The mice in each group were anesthetized with isoflurane and their right cheek hairs were shaved the day or a few days before the experiment. On the day of the experiment, the mice were placed in an acrylic observation cage with mirrors on all four sides and allowed to acclimate the environment for at least 30 minutes. After the acclimatization, Na2S was intradermally administered to the shaved cheeks of the mice without anesthesia, and their subsequent behavior was recorded on video. Compound 5 (10 mg/kg) or vehicle (V, 10 mL/kg) was intraperitoneally administered 30 minutes before Na2S was administered. At the later date, the video was replayed and the number of occurrences of the scratching bouts by the hind paws to the administration site (as pruritus response) and the wipes (wiping) by the forepaws (as pain response) was counted for 60 minutes to evaluate the antipruritic and analgesic effects of the present compound.

[5] = system: mouse Na2S intraplantar injection pain models; assay: Mouse Na2S intraplantar injection pain model (von Frey pain threshold); assay type: in vivo, mice; conditions: for Pain Threshold: mean ± standard error
Protocol: In this test, the analgesic effect of the present compound was studied using mouse Na2S intraplantar injection pain models. Compound 5 was used as the present compound, and saline comprising 1% DMSO and 5% Tween 80 was used as vehicle.
Male ICR mice were received the intraplantar injection of 10 μmol/paw/10 μL of Na2S and T-type calcium channel-dependent pain was induced to prepare mouse Na2S intraplantar injection pain models. The mice were randomly divided into the vehicle+vehicle administration group (control group), vehicle+Na2S administration group, compound 5 (1 mg/kg)+Na2S administration group, compound 5 (3 mg/kg)+Na2S administration group and compound 5 (10 mg/kg)+Na2S administration group (n=7 to 11). Vehicle (V, 10 mL/kg) or 1, 3 or 10 mg/kg of compound 5 was intraperitoneally administered 30 minutes before Na2S was injected intraplantarlly in the hind paws of the mice.
Pain thresholds were measured every 15 minutes until 60 minutes after the administration of Na2S by the von Frey method to evaluate the analgesic effect of the present compound.

[6] = 10 mg/kg i.p. + Na2S, result in words
[7] = 10 mg/kg intraperitoneally 30 minutes before Na2S, mean ± standard error, 6 mice

T1 sequence (O95180 whole entry, the tested form may be a part): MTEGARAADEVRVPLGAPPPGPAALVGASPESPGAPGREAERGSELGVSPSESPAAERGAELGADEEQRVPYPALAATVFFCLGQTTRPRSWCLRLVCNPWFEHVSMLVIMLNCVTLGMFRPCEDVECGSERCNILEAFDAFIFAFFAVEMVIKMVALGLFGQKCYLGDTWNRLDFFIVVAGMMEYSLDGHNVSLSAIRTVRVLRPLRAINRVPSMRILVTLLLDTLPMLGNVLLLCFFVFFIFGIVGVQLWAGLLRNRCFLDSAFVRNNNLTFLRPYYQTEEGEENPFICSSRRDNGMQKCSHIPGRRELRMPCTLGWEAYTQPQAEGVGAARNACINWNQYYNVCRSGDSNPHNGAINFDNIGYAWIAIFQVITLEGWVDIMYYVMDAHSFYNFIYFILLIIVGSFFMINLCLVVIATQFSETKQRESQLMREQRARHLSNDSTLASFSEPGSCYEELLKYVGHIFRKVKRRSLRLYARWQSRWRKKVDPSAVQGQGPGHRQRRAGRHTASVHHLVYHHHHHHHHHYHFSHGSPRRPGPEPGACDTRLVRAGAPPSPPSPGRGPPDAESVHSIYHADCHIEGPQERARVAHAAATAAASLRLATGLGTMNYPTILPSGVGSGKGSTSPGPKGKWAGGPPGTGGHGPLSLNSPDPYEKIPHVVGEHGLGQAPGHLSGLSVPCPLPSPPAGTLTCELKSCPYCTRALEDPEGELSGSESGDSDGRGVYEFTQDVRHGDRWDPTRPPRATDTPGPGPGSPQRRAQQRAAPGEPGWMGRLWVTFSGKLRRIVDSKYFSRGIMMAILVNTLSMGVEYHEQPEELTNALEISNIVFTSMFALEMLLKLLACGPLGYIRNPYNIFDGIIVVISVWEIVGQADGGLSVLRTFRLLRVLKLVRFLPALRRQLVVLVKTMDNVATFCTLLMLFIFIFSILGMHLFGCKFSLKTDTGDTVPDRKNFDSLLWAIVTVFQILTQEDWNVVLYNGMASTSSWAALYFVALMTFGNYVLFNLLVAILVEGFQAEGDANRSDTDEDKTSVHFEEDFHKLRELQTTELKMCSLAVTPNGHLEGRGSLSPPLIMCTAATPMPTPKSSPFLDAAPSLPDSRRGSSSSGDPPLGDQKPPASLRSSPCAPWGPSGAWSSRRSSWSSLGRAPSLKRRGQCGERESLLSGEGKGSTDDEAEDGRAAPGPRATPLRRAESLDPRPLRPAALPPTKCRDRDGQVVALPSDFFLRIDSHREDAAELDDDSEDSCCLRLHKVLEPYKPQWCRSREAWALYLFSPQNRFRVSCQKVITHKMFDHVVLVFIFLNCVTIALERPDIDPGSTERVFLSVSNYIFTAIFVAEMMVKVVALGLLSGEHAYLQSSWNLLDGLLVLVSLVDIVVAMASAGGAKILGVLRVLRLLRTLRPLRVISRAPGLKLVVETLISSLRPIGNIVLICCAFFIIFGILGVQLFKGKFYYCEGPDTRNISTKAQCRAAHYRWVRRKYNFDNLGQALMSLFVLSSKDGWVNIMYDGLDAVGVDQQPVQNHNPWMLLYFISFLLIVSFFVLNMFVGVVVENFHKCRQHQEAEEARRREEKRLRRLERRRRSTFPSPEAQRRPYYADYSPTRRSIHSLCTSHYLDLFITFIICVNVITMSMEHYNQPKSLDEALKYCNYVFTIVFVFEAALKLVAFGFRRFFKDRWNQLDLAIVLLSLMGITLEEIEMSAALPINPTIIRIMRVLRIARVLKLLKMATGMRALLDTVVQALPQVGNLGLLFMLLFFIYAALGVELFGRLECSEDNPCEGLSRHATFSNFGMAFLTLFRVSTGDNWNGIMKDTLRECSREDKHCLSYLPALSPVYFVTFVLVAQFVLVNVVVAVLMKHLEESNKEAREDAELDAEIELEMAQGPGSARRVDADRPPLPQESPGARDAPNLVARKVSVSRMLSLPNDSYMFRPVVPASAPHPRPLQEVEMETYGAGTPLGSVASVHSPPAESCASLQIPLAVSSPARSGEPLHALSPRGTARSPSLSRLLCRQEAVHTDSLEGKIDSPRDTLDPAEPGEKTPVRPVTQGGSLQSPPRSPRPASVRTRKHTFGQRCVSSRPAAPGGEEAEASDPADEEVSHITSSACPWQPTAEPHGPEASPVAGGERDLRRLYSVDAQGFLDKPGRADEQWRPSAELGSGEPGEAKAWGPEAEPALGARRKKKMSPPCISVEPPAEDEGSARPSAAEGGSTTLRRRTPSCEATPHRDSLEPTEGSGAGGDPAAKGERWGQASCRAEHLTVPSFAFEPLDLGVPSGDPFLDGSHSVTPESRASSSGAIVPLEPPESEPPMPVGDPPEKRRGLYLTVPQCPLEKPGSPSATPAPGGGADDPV

O=c1n(CCCCc2ccccc2)c2ccccc2n1C1CCN(CCCCc2ccccc2)CC1 [Compound 5, 1-(4-phenylbutyl)-3-(1-(4-phenylbutyl)piperidin-4-yl)-1H-benzo[d]imidazol-2(3H)-one] was tested, and the “Scratching bouts (counts/60 minutes) (n)” value ([1]; 10 mg/kg i.p. 30 minutes before histamine, mean ± standard error (n)) was 13.3 ± 5.0 (7) counts/60 minutes, the “inhibition of the histamine-dependent scratching bouts” value ([1]; 10 mg/kg, result in words) was “strongly inhibited” and the “catalepsy (keeping time of posture)” value (male ddY mice) was “catalepsy was induced”. For the same molecule, the IC50 [2] was 461 nM, the “Scratching bouts (counts/60 minutes) (n)” value ([3]; 10 mg/kg i.p. 30 minutes before chloroquine, Table 6) was 24.9 ± 5.5 (10) counts/60 minutes and the “inhibition of the histamine-independent scratching bouts” value [3] was “strongly inhibited”. For the same molecule, the inhibition of pain [4, 6] was “significantly inhibited”, the inhibition of pruritus [4, 6] was “significantly inhibited” and the “Scratching bouts (counts/60 minutes)” value [4, 7] was 36.2 ± 9.5 counts/60 minutes. The “Wipes (counts/60 minutes)” value [4, 7] was 30.7 ± 4.0 counts/60 minutes, the “Pain Threshold” value ([5]; 1 mg/kg i.p. + Na2S, 15 minutes after administration) was 0.317 ± 0.082 g and the “Pain Threshold” value ([5]; 1 mg/kg i.p. + Na2S, 30 minutes after administration) was 0.296 ± 0.078 g. For the same molecule, the “Pain Threshold” value ([5]; 3 mg/kg i.p. + Na2S, 15 minutes after administration) was 0.347 ± 0.079 g, the “Pain Threshold” value ([5]; 3 mg/kg i.p. + Na2S, 30 minutes after administration) was 0.417 ± 0.064 g and the “Pain Threshold” value ([5]; 10 mg/kg i.p. + Na2S, 15 minutes after administration) was 0.514 ± 0.054 g. For the same molecule, the “Pain Threshold” value ([5]; 10 mg/kg i.p. + Na2S, 30 minutes after administration) was 0.604 ± 0.049 g and the inhibition of pain ([5]; compound 5 administration group + Na2S, result in words) was “pain was inhibited”.
Work on O=c1[nH]c2ccccc2n1C1CCN(CCCC(c2ccc(F)cc2)c2ccc(F)cc2)CC1 [Pimozide, 1-{1-[4,4-Bis(4-fluorophenyl)butyl]piperidin-4-yl}-1,3-dihydro-2H-benzimidazol-2-one, reference compound] yielded an IC50 [2] of 157 nM.
For O=c1n(CCCCc2cccc(F)c2)c2ccccc2n1C1CCN(CCCCc2cccc(F)c2)CC1 [Compound 38, 1-(4-(3-Fluorophenyl)butyl)-3-(1-(4-(3-fluorophenyl)butyl)piperidin-4-yl)-1H-benzo[d]imidazol-2(3H)-one], the “Scratching bouts (counts/60 minutes) (n)” value ([3]; 1 mg/kg i.p. 30 minutes before chloroquine, Table 7) was 73.0 ± 10.5 (6) counts/60 minutes, the “Scratching bouts (counts/60 minutes) (n)” value ([3]; 3 mg/kg i.p. 30 minutes before chloroquine, Table 7) was 50.7 ± 9.7 (6) counts/60 minutes and the “Scratching bouts (counts/60 minutes) (n)” value ([3]; 10 mg/kg i.p. 30 minutes before chloroquine, Table 7) was 28.8 ± 10.5 (8) counts/60 minutes. The “inhibition of the histamine-independent scratching bouts” value [3] was “strongly inhibited”.
With O=C(CCCc1ccccc1)N1CCC(n2c(=O)n(CCCCc3ccccc3)c3ccccc32)CC1 [Compound 15, 1-(1-(4-Phenylbutanoyl)piperidin-4-yl)-3-(4-phenylbutyl)-1H-benzo[d]imidazol-2(3H)-one] the IC50 [2] was 153 nM.
O=c1n(CCCCc2ccccc2)c2ccccc2n1C1CCN(CCCc2ccccc2)CC1 [Compound 14, 1-(4-Phenylbutyl)-3-(1-(3-phenylpropyl)piperidin-4-yl)-1H-benzo[d]imidazol-2(3H)-one] was tested, and the IC50 [2] was 337 nM.
